# Tests used:
# Format in all cases: in vivo
# hDGAT2 = assay: Mouse model receiving hydrodynamic injection of DGAT2 plasmid via tail vein (Example 5, liver mRNA qPCR); settings: for Average inhibition rate, % Day 1 after HDI (day 15 after administration): 3mpk subcutaneously day 0, HDI day 14, BALB/c mice; for Average inhibition rate, % Day 1 after HDI (day 5 after administration): 3mpk subcutaneously day 0, HDI day 4, BALB/c mice
# Procedure: BALB/c mice, female, 6-7 weeks old.
# pcDNA-DGAT2 plasmid, having a concentration of 2 µg/µL, diluted with physiological saline for later use.
# The hydrodynamic injection scheme of DGAT2 plasmid DNA via tail vein, the administration and the sample collection method were as follows.
# Treatment with compound: The day of administration to mice was defined as day 0, the day before it was day -1, the day after it was day 1, and so on. On day 0, the mice were injected subcutaneously with 5 mL/kg of the solvent or the test compound, at a dosage of 3mpk.
# Hydrodynamic injection of DGAT2 plasmid DNA solution into mice via tail vein: On day 4 or 14, the plasmid DNA was prepared with normal saline before injection, and stored at 4°C until use. All mice were injected with the plasmid DNA solution in a volume of 8% of the body weight (injection volume (mL)= body weight of mice (g) x 8%) in 5 seconds via the tail vein, and the weight of plasmid injected into each mouse was 10 µg.
# Endpoint of the experiment and collection of liver samples: On day 5 or 15, that is, 24 hrs after the hydrodynamic injection of DGAT2 plasmid via the tail vein, all mice were euthanized by CO2 inhalation. After euthanasia, blood samples were collected from the heart and liver samples were collected. 2 liver tissues of about 70 mg were immersed in RNAlater®, and incubated overnight at 4 °C. The supernatant was discarded and the remainder was transferred to a freezer at -80°C, for mRNA detection later.
# RNA in the liver was extracted with Trizol. The method was briefly described as follows: 50-70 mg of liver tissue and 1.2 mL of Trizol were homogenized with Qiagen Tissue Lyser II at 26 Hz for 2 min and lyzed at room temperature for 5 min. 1 mL of the supernatant was taken, added to 200 uL of chloroform, vigorously shaken for 15 s, allowed to stand for 3 min, and centrifuged. The supernatant was collected, added with an equal volume of isopropanol, and stood overnight at -20°C for precipitation. The precipitate was washed twice with 70% , and dissolved in water without RNase. The concentration of the RNA sample was determined by Nanodrop ONE and diluted to 400 ng/uL with water without RNase for reverse transcription.
# The experimental steps of reverse transcription could be made reference to the instruction of FastKing cDNA first strand synthesis kit (genome clean). Briefly, a gDNA removal mixture was prepared according to Table 6. The mixture (5 µL/sample) and 400 ng/µL RNA sample were added to a 96-well PCR reaction plate, incubated at 42°C for 3 min, and cooled on ice. A mixture for reverse transcription was prepared according to Table 7. The reverse transcription mixture (10 µL/sample) and the DNA removal product of the previous step were added to a 96-well PCR reaction plate, for reverse transcription. Reaction conditions: 42°C for 15 min; and 95°C for 3 min. The cDNA was stored at 4°C for further analysis. Table 6. Ingredients for gDNA-removal reaction
# Reaction conditions: 95°C for 10 min; and 40 cycles of 95°C for 15 s, and 60°C for 1 min. Table 8. Ingredients for qPCR Reaction (DGAT2)
# The expression of the target gene in each sample was analyzed by relative quantification using ΔΔCt method. In this method, the Ct difference (ΔCt) between the target gene (DGAT2) and the internal reference gene (Neo) was determined, and the ΔCt value of the sample treated with the compound was compared with that of the control group.
# The formula is: ΔCt = average Ct value of target gene−average Ct value of reference gene. [formula] [formula]
# Data analysis: The data are expressed as the average of each group of mouse samples ± standard error. Unless otherwise specified, n=4 or 5. Student's t test was used for statistical analysis. Table 10.1 Test for evaluating the in-vivo inhibitory activity of siRNA compounds on target gene DGAT2 in mice model receiving hDGAT2 HDI 5 days after administration
# DGAT2 = assay: Inhibitory activity on the target gene DGAT2 in mice (Example 6, liver mRNA RT-PCR); settings: 3 mg/kg SC, day 0, once; C57BL/6 mice, liver mRNA day 7
# Description: Animals: Male C57BL/6 mice, 6 weeks old, without particular pathogens. Before the experiment, the animals were allowed to acclimate to the environment for 7 days.
# Solvent: phosphate buffer (PBS).
# In-vivo experiment: The in-vivo experimental designs for the animal administration and the sample collection method were shown in the table below.
# Definition of days of experiment: The day of first administration to mice was defined as day 0, the day before it was day -1, the day after it was day 1, and so on.
# All mice were given a single dose of PBS, the control compound or the test compound by SC on day 0. On day 7, blood was taken from the submandibular vein plexus mice, and the plasma was collected. Then the mice were euthanized. Blood was taken from the heart for later use. The liver was collected for analysis of target mRNA level in the liver.
# Sample detection and analysis: RT-PCR was used to quantitatively detect the level of target mRNA in liver tissue.
# The expression of the target gene in each sample was analyzed by relative quantification using ΔΔCt method. In this method, the Ct difference (ΔCt) between the target gene (DGAT2) and the internal reference gene (GAPDH) was determined, and the ΔCt value of the sample treated with the compound was compared with that of the control group. […]
# Data analysis: The data are expressed as the average of each group of mouse samples ± standard error. […]
# human DGAT2 [1] = assay: Mice receiving hydrodynamic injection of human DGAT2 plasmid via the tail vein (Example 8); settings: 3 mg/kg subcutaneous single dose day 0; BALB/c mice, liver DGAT2 mRNA
# Procedure: (§1) Animals: BALB/c mice, female, 6-7 weeks old.
# (§2) DGAT2 plasmid DNA: pcDNA-DGAT2 plasmid, having a concentration of 2 µg/µL, diluted with physiological saline for later use.
# Experimental method: The in-vivo experimental designs for the hydrodynamic injection of DGAT2 plasmid DNA, the administration and the sample collection method were shown in the table below.
# Treatment with compound: The day of administration to mice was defined as day 0, the day before it was day -1, the day after it was day 1, and so on. On day 0, the mice were injected subcutaneously with 5 mL/kg of the solvent or the test compound,
# Hydrodynamic injection of DGAT2 plasmid DNA solution into mice via tail vein: On day 14, the plasmid DNA was prepared with normal saline before injection, and stored at 4°C until use. […]
# Quantitative PCR detection of DGAT2 gene expression in mouse liver: RNA in the liver was extracted with Trizol. The concentration of the RNA sample was determined by Nanodrop ONE (ultra-micro ultraviolet-visible spectrophotometer) and diluted to 400 ng/uL with water without RNase for reverse transcription. Quantitative PCR detection of DGAT2 and NEO gene expressions in mouse liver: […]
# human DGAT2 [2] = assay: Mice receiving hydrodynamic injection of human DGAT2 plasmid via the tail vein (Example 7); settings: 3 mg/kg subcutaneous single dose day 0; BALB/c mice, liver DGAT2 mRNA
# Procedure: as §1, §2
# The in-vivo experimental designs for the hydrodynamic injection of DGAT2 plasmid DNA via the tail vein, the administration, and the sample collection method were shown in the table below.
# Treatment with compound: The day of administration to mice was defined as day 0, the day before it was day -1, the day after it was day 1, and so on. On day 0, the mice were injected subcutaneously with 5 mL/kg of the solvent or the test compound.
# Hydrodynamic injection of DGAT2 plasmid DNA solution into mice via tail vein: On day 14, the plasmid DNA was prepared with normal saline before injection, and stored at 4°C until use. All mice were injected with the plasmid DNA solution in a volume of 8% of the body weight (injection volume (mL)= body weight of mice (g) x 8%) in 5 seconds via the tail vein, and the weight of plasmid injected into each mouse was 10 µg. […]
# RNA in the liver was extracted with Trizol. The concentration of the RNA sample was determined by Nanodrop ONE (ultra-micro ultraviolet-visible spectrophotometer) and diluted to 400 ng/uL with water without RNase for reverse transcription. Quantitative PCR detection of DGAT2 and NEO gene expressions in mouse liver: […]
Substance,"Average inhibition rate, % Day 1 after HDI (day 15 after administration) (hDGAT2) [%]","Average inhibition rate, % Day 1 after HDI (day 5 after administration) (hDGAT2) [%]",other results
dS307: sense (invAb)*ggugucugUfGfGfguuauuuaaa*(invAb)*[L96]; anti-sense Vpu*Uf*Uf*AfaauaaccCfaCfaGfacac*c,61.03,–,Average inhibition rate (%) (7 days) (DGAT2): 76%
dS306: sense [NAG37](invAb)*uguggguuAfUfUfuaaaagaaau*(invAb ); anti-sense a*Uf*u*UfcUfuuuaaAfuAfaCfcCfaCf*a,–,96.72,–
dS304: sense (invAb)*cgcuacuuUfCfGfagacuacuuu*(invAb)[L96]; anti-sense a*Af*a*GfuAfgucucGfaAfaGfuAfgCf*g,–,66.33,–
dS303: sense (invAb)*uguacauaUfUfCfugcacugauu*(invAb)[L96]; anti-sense a* Af*u*CfaGfugcagAfaUfaUfgUfaCf*a,–,85.53,–
dS302: sense (invAb)*acaccauaGfAfCfuauuugcuuu*(invAb)[L96]; anti-sense a* Af*a*GfcAfaauagUfcUfaUfgGfuGf*u,70.35,97.46,"Average inhibition rate, % (Day 15 after administration) (human DGAT2 [1]): 70.4%"
dS301: sense (invAb)*gaagaaguUfCfCfagaaauacau*(invAb)[L96]; anti-sense a*Uf*g*UfaUfuucugGfaAfcUfuCfuUf*c,78.89,91.68,"Average inhibition rate, % (Day 15 after administration) (human DGAT2 [2]): 79%"
dS316: sense (invAb)*gaagaaguUfCfCfagaaauacaa[L96]; anti-sense Vpu*Uf*g*UfaUfuucugGfaAfcUfuCfuUf* c,–,–,"Average inhibition rate, % (Day 15 after administration) (human DGAT2 [2]): 66%"
dS305: sense [NAG37](invAb)*uggguuauUfUfAfaaagaaauua*(invAb ); anti-sense u*Af*a*UfuUfcuuuuAfaAfuAfaCfcCf*a,–,95.59,–

# Reference: patent publication EP4722365A1, “DOUBLE-STRANDED NUCLEOTIDE COMPOUND FOR METABOLIC DISEASES AND USE THEREOF” (Visirna Therapeutics (Suzhou) Co., Ltd., priority 2023, dated 2024)
